# Publication PMC5418314, “First-in-human phase I study of SOR-C13, a TRPV6 calcium channel inhibitor, in patients with advanced solid tumors” (Investigational New Drugs, 2017)
# Ends that are not written are not given here.
# Key:
# [1] = half-life in the blood compartment, dog; format: in vivo
# [2] = Phase I safety and tolerability (NCI CTCAE v4.0, DLT) in patients with advanced solid tumors; format: in vivo, human
# Procedure: Dose-escalation was carried out according to a standard 3 + 3 design. At each dose level, cohorts of 3 to 6 patients were scheduled to receive two 21-day cycles of SOR-C13 treatment. SOR-C13 was administered on days 1–3 and 8–10 of the 21-day cycle was administered by IV infusion. The study drug (500 mg/vial) was dissolved in water for injection (2 mL) and diluted in saline prior to infusion to provide a 250 mL (total) infusion volume. Infusion time was increased after the first five patients from the initial 20 min to 90 min with the aim of increasing the safety and tolerability of the drug. In the event of clinically meaningful response (tumor response or stable disease), additional SOR-C13 cycles were offered to study patients. Post-treatment follow-up was completed one and two months after completion of SOR-C13 treatment.
# A Safety Monitoring Committee (SMC) oversaw the safety aspects of the study. Safety endpoints included: incidence of adverse events (AEs) and serious AEs (SAEs), withdrawals due to AEs, Dose Limiting Toxicities (DLTs), infusion reactions, deaths on study, vital signs, electrocardiogram (ECGs), clinical laboratory parameters and changes to the treatment regimen (dose delay, dose decrease) due to AEs. The National Cancer Institute (NCI) Common Terminology Criteria for Adverse Events (CTCAE) Version 4.0 was used to grade the severity of AEs.
# Based on the safety data from the first two cohorts, the regulatory authorities approved a revision of the definition to “one occurrence of ≥Grade 3 toxicity or one occurrence of Grade 2 hypocalcemia, over the first 21-day cycle”. The latter definition was used for the subsequent four cohorts in the study.
# [3] = Cohort 1 5.5 mg/kg N = 3, 20-min infusions
# [4] = Cohort 1, 5.50 mg/kg, C1 D2, Dose# 2
# [5] = Cohort 1, 5.50 mg/kg, C1 D8, Dose# 4
# [6] = Cohort 2 2.75 mg/kg N = 2, 20-min infusions
# [7] = Cohort 2, 2.75 mg/kg, C1 D2, Dose# 2
# [8] = Cohort 3 1.375 mg/kg N = 3, 90-min infusions
# [9] = Cohort 4 2.75 mg/kg N = 6, 90-min infusions
# [10] = Cohort 4, 2.75 mg/kg, C1 D3, Dose# 3
# [11] = Cohort 5 4.13 mg/kg N = 3, 90-min infusions
# [12] = Cohort 6 6.20 mg/kg N = 6, 90-min infusions
# [13] = Cohort 6, 6.20 mg/kg, C1 D8, Post 3
# [14] = Cohort 6, 6.20 mg/kg, C1 D18, Post 6
sequence,measurement,setting,value
KEFLHPSKVDLPR [SOR-C13],half-life in the blood compartment,[1],< 5 min
same,"Any TEAEs, Event",[2]; All Patients N = 23,185
same,"TEAEs Definitely related, Event",[2]; All Patients N = 23,5
same,"TEAEs Possibly related, Event",[2]; All Patients N = 23,29
same,"TEAEs Probably related, Event",[2]; All Patients N = 23,7
same,"TEAEs Remotely/Unlikely related, Event",[2]; All Patients N = 23,10
same,"TEAEs Remotely/Unlikely related, Patient",[2]; All Patients N = 23,4 (17)
same,"TEAEs Unrelated, Event",[2]; All Patients N = 23,134
same,"TEAEs Unrelated, Patient",[2]; All Patients N = 23,21 (91)
same,"Any TEAEs, Event",[2]; [3],49
same,"Any TEAEs, Patient",[2]; [3],3 (100)
same,"TEAEs Definitely related, Event",[2]; [3],5
same,"TEAEs Definitely related, Patient",[2]; [3],2 (67)
same,"TEAEs Possibly related, Event",[2]; [3],3
same,"TEAEs Possibly related, Patient",[2]; [3],2 (67)
same,"TEAEs Probably related, Event",[2]; [3],3
same,"TEAEs Probably related, Patient",[2]; [3],2 (67)
same,"TEAEs Remotely/Unlikely related, Event",[2]; [3],4
same,"TEAEs Remotely/Unlikely related, Patient",[2]; [3],1 (33)
same,"TEAEs Unrelated, Event",[2]; [3],34
same,"TEAEs Unrelated, Patient",[2]; [3],3 (100)
same,"DLT Blood calcium decreased, Relationship",[2]; [4],Probably related
same,"DLT Blood calcium decreased, Severity",[2]; [4],Grade 2
same,"DLT Blood calcium decreased, Relationship",[2]; [5],Definitely related
same,"DLT Blood calcium decreased, Severity",[2]; [5],Grade 2
same,"Any TEAEs, Event",[2]; [6],11
same,"Any TEAEs, Patient",[2]; [6],2 (100)
same,"TEAEs Definitely related, Event",[2]; [6],0
same,"TEAEs Definitely related, Patient",[2]; [6],0 (0)
same,"TEAEs Possibly related, Event",[2]; [6],0
same,"TEAEs Possibly related, Patient",[2]; [6],0 (0)
same,"TEAEs Probably related, Event",[2]; [6],1
same,"TEAEs Probably related, Patient",[2]; [6],1 (50)
same,"TEAEs Remotely/Unlikely related, Event",[2]; [6],0
same,"TEAEs Remotely/Unlikely related, Patient",[2]; [6],0 (0)
same,"TEAEs Unrelated, Event",[2]; [6],10
same,"TEAEs Unrelated, Patient",[2]; [6],2 (100)
same,"DLT Blood calcium decreased, Relationship",[2]; [7],Probably related
same,"DLT Blood calcium decreased, Severity",[2]; [7],Grade 2
same,"Any TEAEs, Event",[2]; [8],25
same,"Any TEAEs, Patient",[2]; [8],3 (100)
same,"TEAEs Definitely related, Event",[2]; [8],0
same,"TEAEs Definitely related, Patient",[2]; [8],0 (0)
same,"TEAEs Possibly related, Event",[2]; [8],0
same,"TEAEs Possibly related, Patient",[2]; [8],0 (0)
same,"TEAEs Probably related, Event",[2]; [8],0
same,"TEAEs Probably related, Patient",[2]; [8],0 (0)
same,"TEAEs Remotely/Unlikely related, Event",[2]; [8],2
same,"TEAEs Remotely/Unlikely related, Patient",[2]; [8],1 (33)
same,"TEAEs Unrelated, Event",[2]; [8],23
same,"TEAEs Unrelated, Patient",[2]; [8],3 (100)
same,frequency of drug-related TEAEs,"[2]; Cohort 3 (1.375 mg/kg), 90-min infusions",0%
same,"Any TEAEs, Event",[2]; [9],52
same,"Any TEAEs, Patient",[2]; [9],6 (100)
same,"TEAEs Definitely related, Event",[2]; [9],0
same,"TEAEs Definitely related, Patient",[2]; [9],0 (0)
same,"TEAEs Possibly related, Event",[2]; [9],11
same,"TEAEs Possibly related, Patient",[2]; [9],4 (67)
same,"TEAEs Probably related, Event",[2]; [9],0
same,"TEAEs Probably related, Patient",[2]; [9],0 (0)
same,"TEAEs Remotely/Unlikely related, Event",[2]; [9],4
same,"TEAEs Remotely/Unlikely related, Patient",[2]; [9],2 (33)
same,"TEAEs Unrelated, Event",[2]; [9],37
same,"TEAEs Unrelated, Patient",[2]; [9],6 (100)
same,frequency of drug-related TEAEs,"[2]; Cohort 4 (2.75 mg/kg), 90-min infusions",67%
same,"DLT Ionized calcium decreased, Relationship",[2]; [10],Possibly related
same,"DLT Ionized calcium decreased, Severity",[2]; [10],Grade 2
same,"Any TEAEs, Event",[2]; [11],14
same,"Any TEAEs, Patient",[2]; [11],3 (100)
same,"TEAEs Definitely related, Event",[2]; [11],0
same,"TEAEs Definitely related, Patient",[2]; [11],0 (0)
same,"TEAEs Possibly related, Event",[2]; [11],5
same,"TEAEs Possibly related, Patient",[2]; [11],3 (100)
same,"TEAEs Probably related, Event",[2]; [11],3
same,"TEAEs Probably related, Patient",[2]; [11],1 (33)
same,"TEAEs Remotely/Unlikely related, Event",[2]; [11],0
same,"TEAEs Remotely/Unlikely related, Patient",[2]; [11],0 (0)
same,"TEAEs Unrelated, Event",[2]; [11],6
same,"TEAEs Unrelated, Patient",[2]; [11],2 (67)
same,frequency of drug-related TEAEs,"[2]; Cohort 5 (4.13 mg/kg), 90-min infusions",100%
same,"Any TEAEs, Event",[2]; [12],34
same,"Any TEAEs, Patient",[2]; [12],6 (100)
same,"TEAEs Definitely related, Event",[2]; [12],0
same,"TEAEs Definitely related, Patient",[2]; [12],0 (0)
same,"TEAEs Possibly related, Event",[2]; [12],10
same,"TEAEs Possibly related, Patient",[2]; [12],6 (100)
same,"TEAEs Probably related, Event",[2]; [12],0
same,"TEAEs Probably related, Patient",[2]; [12],0 (0)
same,"TEAEs Remotely/Unlikely related, Event",[2]; [12],0
same,"TEAEs Remotely/Unlikely related, Patient",[2]; [12],0 (0)
same,"TEAEs Unrelated, Event",[2]; [12],24
same,"TEAEs Unrelated, Patient",[2]; [12],5 (83)
same,frequency of drug-related TEAEs,"[2]; Cohort 6 (6.20 mg/kg), 90-min infusions",100%
same,"DLT Atrial fibrillation, Relationship",[2]; [13],Unrelated
same,"DLT Atrial fibrillation, Severity",[2]; [13],Grade 3
same,"DLT Anaemia, Relationship",[2]; [14],Unrelated
same,"DLT Anaemia, Severity",[2]; [14],Grade 3
same,Grade 4 TEAEs,[2]; N = 23,No Grade 4 TEAE occurred
same,"TEAEs by MedDRA SOC: Gastrointestinal disorders, patients",[2]; N = 23,48%
same,"TEAEs by MedDRA SOC: General disorders and administration site conditions, patients",[2]; N = 23,44%
same,"TEAEs by MedDRA SOC: Infections and infestations, patients",[2]; N = 23,48%
same,"TEAEs by MedDRA SOC: Investigations, patients",[2]; N = 23,44%
same,"TEAEs by MedDRA SOC: Metabolism and nutrition disorders, patients",[2]; N = 23,65%
same,drug-related Serious Adverse Events (SAEs),[2]; N = 23,No drug-related Serious Adverse Events (SAEs) occurred
same,"TEAE Anaemia, percentage of patients","[2]; N = 23, MedDRA preferred term",30%
same,"TEAE Aspartate amino transferase increased, percentage of patients","[2]; N = 23, MedDRA preferred term",17%
same,"TEAE Blood Calcium Decreased, percentage of patients","[2]; N = 23, MedDRA preferred term",22%
same,"TEAE Blood alkaline phosphatase increased, percentage of patients","[2]; N = 23, MedDRA preferred term",13%
same,"TEAE Constipation, percentage of patients","[2]; N = 23, MedDRA preferred term",17%
same,"TEAE Cough, percentage of patients","[2]; N = 23, MedDRA preferred term",17%
same,"TEAE Decreased Appetite, percentage of patients","[2]; N = 23, MedDRA preferred term",22%
same,"TEAE Diarrhoea, percentage of patients","[2]; N = 23, MedDRA preferred term",13%
same,"TEAE Fatigue, percentage of patients","[2]; N = 23, MedDRA preferred term",30%
same,"TEAE Hypercalcaemia, percentage of patients","[2]; N = 23, MedDRA preferred term",13%
same,"TEAE Hyperkalaemia, percentage of patients","[2]; N = 23, MedDRA preferred term",13%
same,"TEAE Hypoalbuminaemia, percentage of patients","[2]; N = 23, MedDRA preferred term",30%
same,"TEAE Hypocalcaemia, percentage of patients","[2]; N = 23, MedDRA preferred term",13%
same,"TEAE Nausea, percentage of patients","[2]; N = 23, MedDRA preferred term",22%
same,"TEAE Urinary Tract Infection, percentage of patients","[2]; N = 23, MedDRA preferred term",30%
same,total number of Grade 3 TEAEs,"[2]; N = 23, in thirteen patients",18
same,patients with DLTs,"[2]; all cohorts, N = 23, first 21-day cycle",26.1%
same,"drug-related blood calcium decrease, patients",[2]; all patients N = 23,13%
same,"drug-related decreased appetite, patients",[2]; all patients N = 23,9%
same,"drug-related hypoalbuminemia, patients",[2]; all patients N = 23,30%
same,"drug-related hypocalcemia, patients",[2]; all patients N = 23,13%
same,"drug-related increased aspartate aminotransferase (AST), patients",[2]; all patients N = 23,9%
same,Maximal Tolerated Dose (MTD),[2]; doses up to 6.2 mg/kg,not established
same,"drug-related hypocalcemia, patients",[2]; patients receiving 90-min infusions (n = 18),13%
same,patients with TEAEs related to the study drug,"[2]; possibly, probably or definitely related, total population N = 23",70%
same,Grade 3 TEAEs assessed as related to the study drug,"[2]; urticaria, ALT increased, AST increased, headache, hypokalaemia",Five of the 18
same,deaths during treatment or post-treatment follow-up,[2]; within two months after the last study drug administration,No deaths occurred
